Measured values: patent US7056734B1, “Differentiation of non-insulin producing cells into insulin producing cells by GLP-1 or exendin-4 and uses thereof” (The United States of America as represented by the …, priority 1998, dated 2006)

Key:
[1] = system: insulin mRNA; assay: Slot-blot quantitation of insulin mRNA in pancreata and islets; type: in vivo, rat; details: young and old animals, 48 hrs infusion, P<0.01
From the text: The rats were implanted with an Alzet micro-osmotic pump (Alza Corp., Palo Alto, Calif.) in the interscapular region for 48 hrs. […] Control animals received normal saline in their pumps and received their infusion for the same length of time.
After an overnight fast, animals were sacrificed, pancreata were removed and frozen in liquid nitrogen as quickly as possible. RNA was extracted by homogenization in guanidinium isothiocyanate, followed by ultracentrifugation on a 5.7 M cesium chloride cushion (Glisin et al., 1974; Chigwin et al., 1979). Poly-A RNA was then prepared from total RNA by affinity chromatography using oligo (dT) columns (Biolabs INC, Beverly, Mass.). RNA was quantified by spectrophotometric analysis at […]. Slot-blot analysis using poly-A RNA was used for quantitation of mRNA levels of glucokinase, which is the main glucose sensor of the beta cell (Matschinsky, 1990), the three hexokinases, GLUT2, the major glucose transporter of the beta cell (Mueckler, 1990), and insulin. Four micrograms of poly-A RNA were diluted in 50 μl TE buffer (Tris-HCL 10 mM, EDTA 1 mM, pH 7.4), 20 μl of 37% formaldehyde and 20 μl of 10× SSC. Samples were incubated at 60° C. for 15 min and then diluted with 1 ml of ice-cold 10× SSC (1×SCC=0.15 M NaCl+0.015 sodium citrate). […]

[2] = system: AR42J cells; assay: Protein tyrosine phosphorylation in AR42J cells; type: cell-based, rat; details: 5 min treatment
Experimental: Tyrosine Phosphorylation Studies. […] Then the medium was removed and fresh KRBB was added, followed by placing the cell on a 37° C. hot plate for 5 min. After addition of various reagents (see FIG. 24) for 5 min the reaction was terminated by submersion of the dishes in liquid nitrogen. The frozen cells were scraped and lysed in RIPA buffer. […] The blots were developed using the ECL chemiluminescence detection system (Amersham).

[3] = system: AR42J cells; assay: Amylase content and CCK response of AR42J cells after 72 h treatment; type: cell-based, rat
Experimental: Amylase Assay. For amylase determination, cells were washed free of medium with 2 ml PBS. Incubation was then carried out in DMEM containing 15 mM HEPES, 0.2% BSA and 0.01% soybean trypsin inhibitor. CCK (1 nM) was added for 50 min at 37° C. The incubation medium was then immediately removed for amylase determination and the cells were again washed in 2 ml ice-cold PBS. Lysate buffer containing (in mM) 130 Tris-HCl, 10 CaCl2, 75 NaCl, and 0.2% Triton X-100 (pH 8.0) was added to the cells and the lysates were then collected for total amylase (Ceska et al., 1969). The released amylase was expressed as the percentage of the total amylase in the cells.

[4] = system: diabetic mice; assay: Five-day daily ip exendin-4 in 14 weeks old diabetic mice; type: in vivo, mouse; details: 24 nmol/kg ip daily
Experimental: In another group of eight diabetic mice 14 weeks old we gave 24 nmol/kg exendin-4 ip daily and NaCl ip daily for five days to four each of the group.
(§1) Assays. Plasma glucose was measured by the glucose oxidase method (Wang et al., 1997). Insulin was measured by RIA as previously described (See Example 1). Hb A1c was assayed using a BIO-RAD (Herculas Calif.) DiaSTAT machine which uses low pressure cation exchange chromatography in conjunction with gradient elution to separate hemoglobin subtypes and variants from hemolyzed blood. The separated hemoglobin fractions were monitored by means of absorption of light at 415 nm.

[5] = system: beta cells of the pancreas; details: Goke et al., 1993; cited from earlier work
[6] = system: diabetic mice (C57BLKS/J-Lepr^db/Lepr^db); assay: Daily ip exendin-4 in diabetic mice; type: in vivo, mouse
From the text: Animals. Four month old Wistar rats from the Wistar colony in the NIA (Baltimore, Md.) were used for the acute experiments of the effects of exendin-4 and GLP-1 (see Example 1). They had been maintained on standard lab chow and fed ad libitum. For the long-term experiments, diabetic mice (C57BLKS/J-Lepr^db/Lepr^db) lacking the leptin receptor, and their non-diabetic littermates were purchased at 4 weeks of age from Jackson Laboratories (Bar Harbor, Me.). They were housed two per cage and also were fed ad libitum. The same mice were caged together for the duration of the study. Wistar rats are caged on wire while the bedding for the mice was a paper based product, “Carefresh” (Absorption Co., Bellingham, Wash.).
Subsequently, whole blood glucose levels, taken from a retro-orbital sinus, were determined in the mice using a Glucometer Elite (Bayer). This regimen was continued for 12–13 weeks. […] Animals were weighed weekly. After one week of the regimen blood samples were again taken from a retro-orbital sinus for determination of insulin and glucose levels. At the end of the regimen, fasting blood samples were obtained for glucose and insulin levels and whole blood containing EDTA was assayed for hemoglobin A1c (Hb A1c) on the same day from the four groups.
as §1

| Molecule | insulin mRNA vs controls [1] | effect on protein tyrosine phosphorylation [2] | total amylase content ([3]; GLP-1 added together with dexamethasone, 72 h) [U/1] | acute amylase response to CCK (1 nM) ([3]; cells pretreated with GLP-1 for 72 h) | blood sugars after five days ([4]; NaCl-treated 640±37) [mg/dL] | insulin levels after five days ([4]; NaCl-treated 1,072±54) | lowest concentrations increasing cAMP and insulin secretion [5] | blood sugar lowering at lower concentration compared with larger amount ([6]; 1 nmol/kg ip for one week, diabetic mice) | weight of the animal for the first 3–4 days of injection ([6]; back to same as NaCl-treated by the seventh day) | cage bedding 24 hours after changing vs NaCl-treated diabetic animals (urination) ([6]; diabetic mice, 9 weeks treatment) | fasting glucose levels ([6]; diabetic mice, 12–13 weeks, NaCl 517±59, p<0.005) [mg/dL] | fasting insulin levels ([6]; diabetic mice, 12–13 weeks, NaCl 707.2±169.7, p<0.02) | Hb A1c ([6]; diabetic mice, daily ip for 12–13 weeks, NaCl-treated 8.8%, p<0.0001) [%] | fasting glucose level after one week of treatment ([6]; diabetic mice, daily ip, NaCl-treated 238±51, p<0.002) [mg/dL] | deaths just after receiving exendin-4 ([6]; diabetic mice, day fourteen) | fasting insulin levels after one week vs NaCl ([6]; diabetic mice, p<0.002) | body weight at 13–14 weeks of treatment ([6]; diabetic mice, NaCl-treated 38.7 g) [g] | effects of the daily injections on behavior ([6]; long-term daily ip) |
| --- | --- | --- | --- | --- | --- | --- | --- | --- | --- | --- | --- | --- | --- | --- | --- | --- | --- | --- |
| CC[C@H](C)[C@H](NC(=O)[C@H](Cc1ccccc1)NC(=O)[C@H](CCC(=O)O)NC(=O)[C@H](CCCCN)NC(=O)[C@H](C)NC(=O)[C@H](C)NC(=O)[C@H](CCC(N)=O)NC(=O)CNC(=O)[C@H](CCC(=O)O)NC(=O)[C@H](CC(C)C)NC(=O)[C@H](Cc1ccc(O)cc1)NC(=O)[C@H](CO)NC(=O)[C@H](CO)NC(=O)[C@@H](NC(=O)[C@H](CC(=O)O)NC(=O)[C@H](CO)NC(=O)[C@@H](NC(=O)[C@H](Cc1ccccc1)NC(=O)[C@@H](NC(=O)CNC(=O)[C@H](CCC(=O)O)NC(=O)[C@H](C)NC(=O)[C@@H](N)Cc1c[nH]cn1)[C@@H](C)O)[C@@H](C)O)C(C)C)C(=O)N[C@@H](C)C(=O)N[C@@H](Cc1c[nH]c2ccccc12)C(=O)N[C@@H](CC(C)C)C(=O)N[C@H](C(=O)N[C@@H](CCCCN)C(=O)NCC(=O)N[C@@H](CCCNC(=N)N)C(N)=O)C(C)C [GLP-1] | increased | did not have any effect | 7.76 | decreased | – | – | – | – | – | – | – | – | – | – | – | – | – | – |
| exendin-4 | – | – | – | – | 355 ± 21 | 6,904±705 pmol/l | 10^−10 M | just as effective | drops | obviously drier | 278.7 ± 30.0 | 4,600±1,114 pmol/l | 4.7 | 90 ± 11 | one of the diabetic mice died | higher | 46.7 | no untoward effects |
